Test results reported in patent US5911990A, “T-cell receptor peptides and methods for preventing the progression to AIDS in an animal model” (Arizona Board of Regents on Behalf of the University of …, priority 1996, dated 1999).
Ends that are not written are not given here.

Assay: Body weight (Example 2)
Format: in vivo, mice
Settings: various levels of peptide injection or time course of injection postinfection
From the text: Female C57BL/6 mice, 4-weeks old, were obtained from Charles River Laboratories Inc. (Wilmington, Del.). Animals were cared for as required by the University of Arizona Committee on Animal Research. After 2 weeks housing in the animal facility in the Arizona Health Science Center (Tucson, Ariz.), they were randomly assigned to one of the following treatments with 8 mice per group for study A: (1) uninfected, normal mice; (2) uninfected, normal mice injected with saline (pyrogen free); (3) LP-BM5-infected mice injected with 5 μg TCR Vβ CDRI peptide; (4) LP-BM5infected mice injected with 25 μg TCR Vβ CDR1 peptide; (5) LP-BM5 infected mice injected with 100 μg TCR Vβ CDR1 peptide; (6) LP-BM5-infected mice injected with 200 μg TCR Vβ CDR1 peptide; (7) LP-BM5-infected mice injected with 500 μg TCR Vβ CDR1 peptide; (8) LP-BM5-infected mice injected with saline and 200 μg Poly AU adjuvant; (9) LP-BM5-infected mice injected with 25 μg TCR Vβ CDR1 peptide and 230 μg Poly AU adjuvant; (10) LP-BM5-infected mice injected with saline and 230 μg Ribi MPL TDM CWS adjuvant; (11) LP-BM5-infected mice injected with 5 μg TCR Vβ CDR1 peptide and 230 μg Ribi MPL TDM CWS adjuvant; and (12) LP-BM5-infected mice injected with 25 μg TCR Vβ CDR1 peptide and 230 Ribi MPL TDM CWS adjuvant.
Administration of peptides (dissolved in saline) and adjuvants were performed 2 weeks after LP-BM5 infection. […]

CKPISGHNSLFWYRQT [TCR Vβ CDR1 peptide, Cys Lys Pro Ile Ser Gly His Asn Ser Leu Phe Trp Tyr Arg Gln Thr]
body weight of the mice: not affected
